This passage reports IC50, DSF and fibrosis and vasculopathy results from patent publication US20260265244A1, “HETEROCYCLIC COMPOUNDS AS STING ANTAGONISTS” (Boehringer Ingelheim International GmbH, priority 2022, published 2026).

Assay [1] has as its system STING inhibition in human whole blood (IFNα2α production). Nature of the assay: Human whole blood assay (HWBA): cGAMP-stimulated IFNα2α production. The assay is classed as cell-based. Conditions: Homo sapiens. On the procedure: For the detection of STING inhibition in physiological environment human whole blood was stimulated by the cyclic dinucleotide cGAMP. Pathway activity was monitored by measuring the IFNα2α production.
Assay method: Compounds were delivered as 10 mM DMSO solution and serial diluted and transferred to the 96-well Cell culture Plate (Corning #3595), prefilled with 20 μl OptiMEM (Gibco #11058-021) in each well, using an Echo acoustic dispenser. Typically, 8 concentrations were used with the highest concentration at 10 μM in the final assay volume followed by ~1:5 dilution steps. DMSO concentration was set to 0.1% in the final assay volume. The 96 well assay plate contained 9 test compounds, a reference compound and DMSO in control wells.
Collection of human whole blood from 3 or more healthy donors (male or female, no medication for 7 days, exception contraceptive and thyroxine) as Na-citrate blood (e.g. 3.8% in Monovettes from Sarstedt) is conducted in parallel. Whole blood was kept at room temperature for a maximum of 3 hours after collection until use in the assay.
160 μl of the whole blood samples were transferred to each well of the 96-well assay plates filled with compound/OptiMEM. All assay plates are prepared as duplicates with blood from different donors. Blood plates were kept at room temperature for 60 minutes and continuous shaking with 450 rpm, covered with the lid, but not sealed.
A 10× cGAMP assay solution was diluted from a 2 mM stock solution in 1×HBSS immediately before use at room temperature. 20 μl of the 10× cGAMP/HBSS were added to all compound and all high control wells, whereas HBSS only was added to all low control wells.
After covering assay plates with aera seals and the lid, blood plates were kept at room temperature for 30 minutes and continuous shaking with 450 rpm, followed by an overnight incubation of 22 h at 37° C. in the incubator, without shaking.
For the detection of IFNα-2α in human plasma, the biotinylated capture antibody (Antibody set IFNA2, Meso Scale Diagnostics #B21VH-3, including coating and capture antibody) was diluted 1:17.5 in Diluent 100 (Meso Scale Diagnostics #R50AA-4, according to the manufacturer. U-Plex MSD GOLD 96-well Small Spot Streptavidin SECTOR Plates (Meso Scale Diagnostics #L45SA-5) were coated with 25 μl diluted capture antibody. Coated plates were incubated for 60 min at room temperature under continuous shaking at 700 rpm. MSD IFNα-2α plates were washed three times with 150 μl wash buffer (1×HBSS, 0.05% Tween).
After blocking the plates with 100 μl block solution/well (1×HBSS with 0.2% Tween, 2% BSA) for 60 min at room temperature and continuous shaking at 700 rpm, plates were emptied as dry as possible by dumping just before continuing with the human plasma. Whole Blood assay plates were centrifuged at 1600 rpm for 10 minutes. 25 μl of supernatant was transferred with a pipetting robotics from each whole blood plate to the corresponding IFNα-2α plate. Plates were sealed with microplate seals and kept at room temperature again under continuous shaking at 700 rpm for two hours. Next MSD IFNα-2α plates were washed three times with 150 μl wash buffer (1×HBSS, 0.05% Tween), before adding 25 μl MSD SULFO-TAG IFNα-2α Antibody solution (1:100 diluted in Diluent 3 (Meso Scale Diagnostics #R50AP-2) to each well of the plates. Afterwards plates were sealed with microplate seals and kept at room temperature again under continuous shaking at 700 rpm for two hours. Finally MSD IFNα-2α plates were washed three times with 150 μl wash buffer (1×HBSS, 0.05% Tween). 150 μl 2×Read buffer was added to each well and plates were immediately measured with the MSD Sector S600 Reader using the vendor barcode.
Data evaluation and calculation: For data evaluation and calculation, % control calculation of each well was based on the mean of high (cGAMP stimulated control) and mean of low (unstimulated control) controls by using the following formula: […]

The target of assay [2] is T1, cGAMP binding domain of wild-type (GRR) human STING, residues 155-341 (Homo sapiens, UniProt Q86WV6, H232R).
T1 construct: His-TEV-hSTING (WT); TEV protease cleavage site (N); made in house; host or cells: E. coli BL21 DE3
T1 sequence (Q86WV6 with tags, fused parts or gaps H232R): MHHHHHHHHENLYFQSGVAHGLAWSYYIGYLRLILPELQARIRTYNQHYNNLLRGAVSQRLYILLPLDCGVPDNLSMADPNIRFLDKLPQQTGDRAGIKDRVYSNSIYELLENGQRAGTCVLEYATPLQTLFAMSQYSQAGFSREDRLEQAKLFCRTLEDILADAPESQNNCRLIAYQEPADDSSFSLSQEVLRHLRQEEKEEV
Nature of the assay: Increase of stability of STING protein against thermal denaturation, Differential Scanning Fluorimetry (DSF). The protocol: Dye fluorescence is quenched in aqueous environment and increases upon association of the dye with the hydrophobic parts of the unfolding protein. […] The inflection point of the curve represents the “melting” temperature of the protein (Tm) which is calculated numerically using the Boltzmann equation.
Method: The thermal stability of the STING protein was measured using a specific expression construct of the cGAMP binding domain of wild-type (GRR) human STING comprising residues 155-341 and a N-terminal 8×His-tag (SEQ ID NO: 3) in assay buffer containing 20 mM Tris, 150 mM NaCl at pH7.5.
The assay uses Hard-Shell® PCR Plates 384-Well CLR/WHT (Catalog #HSP3805, BIO-RAD), Microseal® ‘B’ Adhesive Seals for PCR Plates (Catalog #MSB-1001, BIO-RAD) and was run on a CFX384 Real-Time System (Bio-Rad).
A DMSO stock solution of SYPRO orange (SIGMA S5692-500UL) was prepared.
Compound stock solutions (10 mM in DMSO) were diluted 1:2 in DMSO to an intermediate compound concentration of 5 mM and then further diluted 1:40 in assay buffer resulting in a compound concentration of 125 μM and 2.5% DMSO.
Fluorescent dye stock solution (5000×SYPRO Orange) was then mixed with target protein and buffer to a concentration of 15 uM Protein and 25×SYPRO Orange. 2 ul of this protein-dye-mixture was added to 8 ul compound solution. Final volume was 10 uL. 3-6 well positions were used as negative control (protein with 2% DMSO). The plates were prepared for duplicate measurement and centrifuged for 2 min at 1000 g. In the measurement, 160 cycles of 0.5° C. were used (temperature ramp 15 s/cycle, 15° C. to 95° C.).
Final Assay concentrations for compound characterization were as follows: 100 uM compound, 3 uM target protein, 5×SYPRO Orange, 2% DMSO in 10 ul. All dispensing steps were performed using a HamiltonStar pipetting robot (Hamilton).
Dissociation curves were processed in Bio-Rad CFX Manager. Peak type was set to “negative”. Compound codes for screen were assigned in the plate layout.
Two replicates of TM measurements were averaged, and the standard deviation was calculated. In cases of SD>1.5° C. the measurement was repeated.
The melting point (Tm) obtained for STING protein alone was subtracted from T obtained for protein incubated with ligand to generate ΔTm values.
Protein production and purification: The protein used for the biophysical experiments was a recombinant human STING protein comprising its cytosolic ectodomain. A codon optimized DNA sequence (for expression in Escherichia coli) encoding amino acid residues 155 to 341 (Swiss Prot Q86WV6) of human STING (WT) was synthesized by GeneArt (Regensburg, Germany) and inserted into a pET17b E. coli expression vector. The protein construct encodes an N-terminal 8×His-tag (SEQ ID NO: 3) followed by tobacco etch virus protease (TEV) cleavage site and the above STING gene sequence. The resulting protein sequence for the used STING variant is listed below:
For expression of recombinant human STING above construct was transformed into E. coli BL21 DE3 strain and grown in shake flasks in LB-medium at 37° C. Expression was induced by addition of isopropyl β-D-1-thiogalactopyranoside to a final concentration of 1 mM and cultures shaken overnight. Cell pellets were centrifuged and stored at −70° C. until further use. Protein was purified by cell thawing in lysis buffer (20 mM TRIS-HCl, pH 8, 300 mM NaCl, 2 mM mercaptoethanol, 20 mM imidazole, Complete Protease Inhibitor (Roche) and DNase (Roche)), followed by metal affinity purification using Ni-NTA resins and elution buffer consisting of 20 mM TRIS-HCl, pH 8, 300 mM NaCl, 2 mM mercaptoethanol, 300 mM imidazole and size exclusion chromatography in running buffer (20 mM TRIS-HCl, pH 8, 100 mM NaCl, 2 mM DTT). The peak fraction was collected and concentrated to 2.5 mg/mL.
On the technique in general: In DSF a fluorescence change marks the thermal transition of the protein.

The subject of assay [3] is STING. Conditions: in vitro and in BLM-induced SSc mice; cited from earlier work.

In general, IC50 refers to the point on the concentration scale where inhibition reaches its midpoint. A lower IC50 goes with greater potency in that assay.

On to `Cc1c(C(C)C)c(-c2cccc3nn(C[C@H](O)c4ccccc4)cc23)nn1-c1cc2cn(C)nc2nc1OCCO` [Example 71, 2-{[5-(3-{2-[(2R)-2-hydroxy-2-phenylethyl]-2H-indazol-4-yl}-5-methyl-4-(propan-2-yl)-1H-pyrazol-1-yl)-2-methyl-2H-pyrazolo[3,4-b]pyridin-6-yl]oxy}ethan-1-ol], for which half-maximal inhibition in assay [1] (IC50) was put at 370 nM. Besides, the DSF in assay [2] stood at 26 K.

Molecule `Cc1nc2nn(CC3COCCO3)cc2cc1-n1nc(-c2cccc3nn(C[C@H](O)c4ccccc4)cc23)c(C(C)C)c1C` (stereo partly drawn) [Example 31, (1R)-2-[4-(1-{2-[(1,4-dioxan-2-yl)methyl]-6-methyl-2H-pyrazolo[3,4-b]pyridin-5-yl}-5-methyl-4-(propan-2-yl)-1H-pyrazol-3-yl)-2H-indazol-2-yl]-1-phenylethan-1-ol] displayed an IC50 in assay [1] of 110 nM. The same molecule returned a DSF in assay [2] of 27 K.

For `Cc1nc2nn(CCCN(C)C)cc2cc1-n1nc(-c2cccc3nn(C[C@H](O)c4ccccc4)cc23)c(C(C)C)c1C` [Example 43, (1R)-2-[4-(1-{2-[3-(dimethylamino)propyl]-6-methyl-2H-pyrazolo[3,4-b]pyridin-5-yl}-5-methyl-4-(propan-2-yl)-1H-pyrazol-3-yl)-2H-indazol-2-yl]-1-phenylethan-1-ol], the IC50 in assay [1] stood at 140 nM.

In the case of `CCc1ccc(NC(=O)Nc2c[nH]c3ccccc23)cc1` [Example H151], the fibrosis and vasculopathy entry in assay [3] is “ameliorated fibrosis and vasculopathy”.

With `CCOc1nc2nn(C)cc2cc1-n1nc(-c2cccc3nn(C[C@H](O)c4ccccc4)cc23)c(C(C)C)c1C` [Example 5, (1R)-2-[4-(1-{6-ethoxy-2-methyl-2H-pyrazolo[3,4-b]pyridin-5-yl}-5-methyl-4-(propan-2-yl)-1H-pyrazol-3-yl)-2H-indazol-2-yl]-1-phenylethan-1-ol], the IC50 in assay [1] worked out at 61 nM.

Molecule `COc1nc2nn(C)cc2cc1-n1nc(-c2cccc3nn(C[C@H](O)c4ccccc4)cc23)c(C(C)C)c1C` [Example 59, (1R)-2-[4-(1-{6-methoxy-2-methyl-2H-pyrazolo[3,4-b]pyridin-5-yl}-5-methyl-4-(propan-2-yl)-1H-pyrazol-3-yl)-2H-indazol-2-yl]-1-phenylethan-1-ol] gave an IC50 in assay [1] of 240 nM. In assay [2], this molecule returned a DSF of 27 K.

For the molecule `Cc1nc2nn(CP(C)(C)=O)cc2cc1-n1nc(-c2cccc3nn(C[C@H](O)c4ccccc4)cc23)c(C(C)C)c1C` [Example 77, (1R)-2-[4-(1-{2-[(dimethylphosphoryl)methyl]-6-methyl-2H-pyrazolo[3,4-b]pyridin-5-yl}-5-methyl-4-(propan-2-yl)-1H-pyrazol-3-yl)-2H-indazol-2-yl]-1-phenylethan-1-ol], in assay [1], the IC50 turned out to be 550 nM. In assay [2], this molecule displayed a DSF of 27 K.

Regarding `Cn1c(-c2cc3cn(CCCN4CCOCC4)nc3nc2C2CC2)nc(-c2cccc3nn(C[C@H](O)c4ccccc4)cc23)c1C1CC1` [Example 11, (1R)-2-[4-(5-cyclopropyl-2-{6-cyclopropyl-2-[3-(morpholin-4-yl)propyl]-2H-pyrazolo[3,4-b]pyridin-5-yl}-1-methyl-1H-imidazol-4-yl)-2H-indazol-2-yl]-1-phenylethan-1-ol], the IC50 in assay [1] was found to be 70 nM. The same molecule yielded a DSF in assay [2] of 30 K.

`Cn1cc2cc(-c3nc(-c4cccc5nn(C[C@H](O)c6ccc(OCc7ccccc7)cc6)cc45)c(C4CC4)n3C)c(C3CC3)nc2n1` [Example 4, (1R)-1-[4-(benzyloxy)phenyl]-2-[4-(5-cyclopropyl-2-{6-cyclopropyl-2-methyl-2H-pyrazolo[3,4-b]pyridin-5-yl}-1-methyl-1H-imidazol-4-yl)-2H-indazol-2-yl]ethan-1-ol] registered an IC50 in assay [1] of 800 nM. In addition, in assay [2], the DSF came out at 27 K.

Turning to `COCCc1nc2nn(C)cc2cc1-n1nc(-c2cccc3nn(C[C@H](O)c4ccccc4)cc23)c(C(C)C)c1C` [Example 38, (1R)-2-(4-{1-[6-(2-methoxyethyl)-2-methyl-2H-pyrazolo[3,4-b]pyridin-5-yl]-5-methyl-4-(propan-2-yl)-1H-pyrazol-3-yl}-2H-indazol-2-yl)-1-phenylethan-1-ol], inhibition in assay [1] was half-maximal at 130 nM (IC50). This molecule had a DSF in assay [2] of 26 K.

Consider `C=Cn1cc2cc(-c3nc(-c4cccc5nn(C[C@H](O)c6ccccc6)cc45)c(C4CC4)n3C)c(C3CC3)nc2n1` [Example 61, (1R)-2-[4-(5-cyclopropyl-2-{6-cyclopropyl-2-ethenyl-2H-pyrazolo[3,4-b]pyridin-5-yl}-1-methyl-1H-imidazol-4-yl)-2H-indazol-2-yl]-1-phenylethan-1-ol], for which the IC50 in assay [1] was found to be 270 nM. Besides, the DSF in assay [2] was found to be 30 K.

As for `Cc1nc2nn(CCC#N)cc2cc1-n1nc(-c2cccc3nn(C[C@H](O)c4ccccc4)cc23)c(C(C)C)c1C` [Example 99], it took 35 nM to reach half-maximal inhibition in assay [1] (IC50). Moreover, in assay [2], the DSF turned out to be 29 K.
